Measured values taken from paper doi:10.1101/2023.02.14.528348v1, “Plasticity of the binding pocket in peptide transporters underpins promiscuous substrate recognition” (biorxiv, 2023).
Marks after values point to notes of the source that are not given here. Values belong to the molecule of their own block, whether it stands above or below them. Residues, ends and D or L forms follow the SMILES beside them.

Key:
DtpB [1] = molecular target: T1, DtpB (Escherichia coli, UniProt P36837); assay: thermal unfolding titration, irreversible kinetic (Hall) model; type: binding
T1 construct: purified membrane protein; reconstituted in liposomes for transport; Nb132 complex for crystals; host, tags and borders only in supplement
T1 sequence (P36837 1-489): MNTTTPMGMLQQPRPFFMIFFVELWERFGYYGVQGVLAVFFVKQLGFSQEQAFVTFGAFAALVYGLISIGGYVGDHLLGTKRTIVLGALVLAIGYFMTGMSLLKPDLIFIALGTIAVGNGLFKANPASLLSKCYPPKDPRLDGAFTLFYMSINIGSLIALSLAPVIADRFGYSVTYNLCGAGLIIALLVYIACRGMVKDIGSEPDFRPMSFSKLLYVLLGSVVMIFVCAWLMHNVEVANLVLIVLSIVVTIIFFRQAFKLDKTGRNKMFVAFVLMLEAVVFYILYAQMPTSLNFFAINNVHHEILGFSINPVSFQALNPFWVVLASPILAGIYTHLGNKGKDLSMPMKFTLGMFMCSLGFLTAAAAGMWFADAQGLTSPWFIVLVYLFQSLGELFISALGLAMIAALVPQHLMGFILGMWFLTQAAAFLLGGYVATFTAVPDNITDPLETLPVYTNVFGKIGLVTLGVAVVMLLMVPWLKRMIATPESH

DtpB [2] = molecular target: T1, DtpB; assay: X-ray crystal structure of complex; type: binding; settings: crystallised with nanobody Nb132; inward-facing open; central cavity
DtpB [3] = molecular target: T1, DtpB; assay: inhibition of AA transport, pyranine fluorescence assay in proteoliposomes; type: biochemical
DtpB [4] = molecular target: T1, DtpB; assay: thermal unfolding titration, irreversible kinetic (Hall) model; also co-crystal structure; type: binding; settings: purified protein
DtpB [5] = molecular target: T1, DtpB; assay: inhibition of AA transport, pyranine fluorescence assay in proteoliposomes; type: biochemical; remark: listed apart in the source

SMILES: CC[C@H](C)[C@H](NC(=O)[C@H](C)N)C(=O)O [AI, Ala-Ile] (H-Ala-Ile-OH)
X-ray crystal structure of complex (DtpB [2]): Structure of DtpB bound to nanobody Nb132 and the dipeptide AI

SMILES: C[C@H](N)C(=O)N[C@@H](CCCCN)C(=O)O [AK] (H-Ala-Lys-OH)
Kd (DtpB [1]): 1770 ± 90 µM

SMILES: CC(C)[C@H](NC(=O)[C@@H](N)CCCCN)C(=O)O [KV, Lys-Val] (H-Lys-Val-OH)
X-ray crystal structure of complex (DtpB [2]): Q34 interacts with the ε-amino group of K1* in KV

Continued, in another order:

Kd (DtpB [1]): 100 ± 40 µM
SMILES: C[C@H](N)C(=O)N[C@@H](Cc1c[nH]cn1)C(=O)O [AH] (H-Ala-His-OH)

IC50 (DtpB [3]): 2370 ± 680 µM
Ki (DtpB [5]): 250 ± 80 µM
SMILES: C[C@H](N)C(=O)N[C@@H](Cc1ccccc1)C(=O)O [AF, Ala-Phe]
KD (DtpB [4]): Peptide affinity is color-coded with AF having the highest affinity

Kd (DtpB [1]): 352 ± 38 µM
SMILES: N[C@@H](CO)C(=O)N[C@@H](Cc1c[nH]cn1)C(=O)O [SH] (H-Ser-His-OH)

Kd (DtpB [1]): 206 ± 126 µM
SMILES: O=C(O)[C@H](Cc1ccc(O)cc1)NC(=O)[C@@H]1CCCN1 [PY] (H-Pro-Tyr-OH)
